Data reported in ChEMBL document CHEMBL1649567, “Characterization of the plasmid-borne quinolone resistance gene qnrB19 in Salmonella enterica serovar Typhimurium” (2009).
Converted amounts (≈) assume the structure as drawn.

What was measured:
Salmonella typhimurium [1] = experiment: Antimicrobial activity against Salmonella enterica serovar Typhimurium transconjugant p61/9T expressing qnrB19 gene variant carried by IncL/M-like plasmid by Etest; type: functional, Salmonella enterica subsp. enterica serovar Typhimurium
Salmonella typhimurium [2] = experiment: Antimicrobial activity against Salmonella enterica serovar Typhimurium STYM61/9 expressing qnrB19 gene variant carried by IncL/M-like plasmid by Etest; type: functional, Salmonella enterica subsp. enterica serovar Typhimurium
Escherichia coli = experiment: Antimicrobial activity against Escherichia coli CSH26RifR receiving qnrB19 gene variant carried by IncL/M-like plasmid from Salmonella enterica serovar Typhimurium STYM61/9 by Etest; type: functional

| SMILES | MIC (Salmonella typhimurium [1]) [µg/mL] | MIC (Salmonella typhimurium [2]) [µg/mL] | MIC (Escherichia coli) [µg/mL] |
| --- | --- | --- | --- |
| O=C(O)c1cn(C2CC2)c2cc(N3CCNCC3)c(F)cc2c1=O [CIPROFLOXACIN] | 0.19 (≈ 0.573 µM) | 0.38 (≈ 1.15 µM) | – |
| COc1c(N2C[C@@H]3CCCN[C@@H]3C2)c(F)cc2c(=O)c(C(=O)O)cn(C3CC3)c12 [MOXIFLOXACIN] | 0.5 (≈ 1.25 µM) | 0.5 (≈ 1.25 µM) | 0.047 (≈ 0.117 µM) |
| CCn1cc(C(=O)O)c(=O)c2ccc(C)nc21 [NALIDIXIC ACID] | 16 (≈ 68.9 µM) | 12 (≈ 51.7 µM) | 4 (≈ 17.2 µM) |
| CCn1cc(C(=O)O)c(=O)c2cc(F)c(N3CCNCC3)cc21 [NORFLOXACIN] | 0.5 (≈ 1.57 µM) | 1 (≈ 3.13 µM) | 0.064 (≈ 0.2 µM) |
| CC1COc2c(N3CCN(C)CC3)c(F)cc3c(=O)c(C(=O)O)cn1c23 (centres undefined) [OFLOXACIN] | 0.75 (≈ 2.08 µM) | 0.75 (≈ 2.08 µM) | 0.064 (≈ 0.177 µM) |
